In patent US7790752B2, “Indol-3-yl-carbonyl-azaspiro derivatives” (Hoffmann-La Roche Inc., priority 2005, dated 2010):

molecular target: T1, human V1a receptor (Homo sapiens, UniProt P37288); experiment: human V1a receptor binding (3H-Vasopressin SPA, HEK293 membranes); settings: displacement of 3H-Vasopressin; membranes of HEK293 cells transiently transfected with human V1a receptor; Ki from IC50 by Cheng-Prussoff equation
T1 construct: expressed in transfected cells; host or cells: HEK293 cells, transiently transfected; membrane preparation
Experimental: The human V1a receptor was cloned by RT-PCR from total human liver RNA. The coding sequence was subcloned in an expression vector after sequencing to confirm the identity of the amplified sequence. […] Cell membranes were prepared from HEK293 cells transiently transfected with the expression vector and grown in 20 liter fermenters with the following protocol.
50 g of cells are resuspended in 30 ml freshly prepared ice cold Lysis buffer (50 mM HEPES, 1 mM EDTA, 10 mM MgCl2 adjusted to pH=7.4+complete cocktail of protease inhibitor (Roche Diagnostics)). Homogenized with Polytron for 1 min and sonicated on ice for 2×2 minutes at 80% intensity (Vibracell sonicator). The preparation is centrifuged 20 min at 500 g at 4° C., the pellet is discarded and the supernatant centrifuged 1 hour at 43,000 g at 4° C. (19,000 rpm). The pellet is resuspended in 12.5 ml Lysis buffer+12.5 ml Sucrose 20% and homogenized using a Polytron for 1-2 min. The protein concentration is determined by the Bradford method, and aliquots are stored at −80° C. until use. For binding studies 60 mg Yttrium silicate SPA beads (Amersham) are mixed with an aliquot of membrane in binding buffer (50 mM Tris, 120 mM NaCl, 5 mM KCl, 2 mM CaCl2, 10 mM MgCl2) for 15 minutes with mixing. 50 ul of bead/membrane mixture is then added to each well of a 96 well plate, followed by 50 ul of 4 nM 3H-Vasopressin (American Radiolabeled Chemicals). For total binding measurement 100 ul of binding buffer are added to the respective wells, for non-specific binding 100 ul of […] cold vasopressin and for compound testing 100 ul of a serial dilution of each compound in 2% DMSO. The plate is incubated 1 h at room temperature, centrifuged 1 min at 1000 g and counted on a Packard Top-Count. Non-specific binding counts are subtracted from each well, and data is normalized to the maximum specific binding set at 100%. To calculate an IC 50 the curve is fitted using a non-linear regression model (XLfit), and the Ki is calculated using the Cheng-Prussoff equation.

T1 sequence (P37288 whole entry): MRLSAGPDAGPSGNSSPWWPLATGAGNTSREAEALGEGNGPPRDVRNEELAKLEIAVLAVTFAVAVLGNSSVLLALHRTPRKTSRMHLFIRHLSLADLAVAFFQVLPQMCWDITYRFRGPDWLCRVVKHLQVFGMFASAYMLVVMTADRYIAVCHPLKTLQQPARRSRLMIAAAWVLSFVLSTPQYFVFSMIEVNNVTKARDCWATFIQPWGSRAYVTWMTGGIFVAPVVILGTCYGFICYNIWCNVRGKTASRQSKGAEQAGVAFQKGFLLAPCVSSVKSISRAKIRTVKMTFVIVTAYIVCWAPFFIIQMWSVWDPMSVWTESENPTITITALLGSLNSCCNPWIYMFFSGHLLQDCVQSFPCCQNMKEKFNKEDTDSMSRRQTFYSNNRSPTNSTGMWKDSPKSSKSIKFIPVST

Compound | Ki [nM]
Cc1c(C(=O)N2CCC3(CC2)C(=O)N(C)CN3c2ccccc2)c2ccccc2n1Cc1ccccc1 [Example 1, 8-[(1-Benzyl-2-methyl-1H-indol-3-yl)carbonyl]-3-methyl-1-phenyl-1,3,8-triazaspiro[4.5]decan-4-one] | 368
Cc1c(C(=O)N2CCC3(CC2)C(=O)NCN3c2ccccc2)c2ccccc2n1Cc1ccccc1 [Example 2, 8-(1-Benzyl-2-methyl-1H-indole-3-carbonyl)-1-phenyl-1,3,8-triaza-spiro[4.5]decan-4-one] | 367
CN(C)CCn1cc(C(=O)N2CCC3(CC2)C(=O)N(C)CN3c2ccccc2)c2ccc(Cl)cc21 [Example 7, 8-({6-Chloro-1-[2-(dimethylamino)ethyl]-1H-indol-3-yl}carbonyl)-3-methyl-1-phenyl-1,3,8-triazaspiro[4.5]decan-4-one] | 156
CNC(=O)Cn1cc(C(=O)N2CCC3(CC2)C(=O)N(C)CN3c2ccccc2)c2ccc(Cl)cc21 [Example 8, 2-{6-Chloro-3-[(3-methyl-4-oxo-1-phenyl-1,3,8-triazaspiro[4.5]dec-8-yl)carbonyl]-1H-indol-1-yl}-N-methylacetamide] | 37
CN1CN(c2ccccc2)C2(CCN(C(=O)c3cn(Cc4cc(F)cc(F)c4)c4cc(Cl)ccc34)CC2)C1=O [Example 9, 8-{[6-Chloro-1-(3,5-difluorobenzyl)-1H-indol-3-yl]carbonyl}-3-methyl-1-phenyl-1,3,8-triazaspiro[4.5]decan-4-one] | 21
CN(C)C(=O)Cn1cc(C(=O)N2CCC3(CC2)C(=O)N(C)CN3c2ccccc2)c2ccc(Cl)cc21 [Example 10, 2-{6-Chloro-3-[(3-methyl-4-oxo-1-phenyl-1,3,8-triazaspiro[4.5]dec-8-yl)carbonyl]-1H-indol-1-yl}-N,N-dimethylacetamide] | 14
CN1CN(c2ccccc2)C2(CCN(C(=O)c3cn(Cc4ccccc4)c4cc(Cl)ccc34)CC2)C1=O [Example 11, 8-[(1-Benzyl-6-chloro-1H-indol-3-yl)carbonyl]-3-methyl-1-phenyl-1,3,8-triazaspiro[4.5]decan-4-one] | 45
CN1CN(c2ccccc2)C2(CCN(C(=O)c3cn(Cc4cccc(Cl)c4F)c4cc(Cl)ccc34)CC2)C1=O [Example 13, 8-{[6-Chloro-1-(3-chloro-2-fluorobenzyl)-1H-indol-3-yl]carbonyl}-3-methyl-1-phenyl-1,3,8-triazaspiro[4.5]decan-4-one] | 73
CN(C)CCNC(=O)Cn1cc(C(=O)N2CCC3(CC2)C(=O)N(C)CN3c2ccccc2)c2ccc(Cl)cc21 [Example 14, 2-{6-Chloro-3-[(3-methyl-4-oxo-1-phenyl-1,3,8-triazaspiro[4.5]dec-8-yl)carbonyl]-1H-indol-1-yl}-N-[2-(dimethylamino)ethyl]acetamide] | 184
Cc1c(C(=O)N2CCC3(CC2)OCCO3)c2ccccc2n1Cc1ccccc1 [Example 15, (1-Benzyl-2-methyl-1H-indol-3-yl)-(1,4-dioxa-8-aza-spiro[4.5]dec-8-yl)-methanone] | 424
O=C(c1c[nH]c2cc(Cl)ccc12)N1CCC2(CC1)OCCO2 [Example 16, 8-[(6-Chloro-1H-indol-3-yl)carbonyl]-1,4-dioxa-8-azaspiro[4.5]decane] | 284
